Test results published in PMC6222789, “CF3-Substituted Mollugin 2-(4-Morpholinyl)-ethyl ester as a Potential Anti-inflammatory Agent with Improved Aqueous Solubility and Metabolic Stability” (Molecules : A Journal of Synthetic Chemistry and Natural …, 2018).

Columns and labels:
CYP2C19 = target: T1, CYP2C19 (Homo sapiens, UniProt P33261); test: CYP inhibition assay, CYP2C19; type: in vitro ADME; settings: for CYP Inhibition (% of Control) 2C19: 10 μM, CYP activity in presence of inhibitor as % of control, human liver microsomes
T1 construct: from tissue; host or cells: human liver microsomes
Description: (§1) All incubations were performed in duplicate, and the mean values were used for analysis. The assays of phenacetin O-deethylase, tolbutamide 4-hydroxylase, S-mephenytoin 4-hydroxylase, dextromethorphan O-demethylase and midazolam 1′-hydroxylase activities were determined as probe activities for CYP1A2, CYP2C9, CYP2C19, CYP2D6 and CYP3A, respectively, using cocktail incubation and tandem mass spectrometry. Briefly, incubation reaction was performed with 0.25 mg/mL human liver microsomes in a final incubation volume of 100 μL. The incubation medium contained 100 mM phosphate buffer (pH 7.4) with probe substrates. The incubation mixture containing various inhibitors (10 μM) was pre-incubated for 5 min. After pre-incubation, an NADPH regenerating system was added. After incubation at 37 °C for 15 min, the reaction was stopped by placing the incubation tubes on ice and adding 40 μL of ice-cold acetonitrile. The incubation mixtures were then centrifuged at 10,000× g for 5 min at 4 °C. Aliquots of the supernatant were injected onto an LC-MS/MS system. The CYP-mediated activities in the presence of inhibitors were expressed as percentages of the corresponding control values.

[1] = test system: IL-6-induced adhesion of U937 monocytic cells to HT-29 cells; test: IL-6-induced colonic epithelial cell adhesion assay; type: cell-based, human; settings: Homo sapiens, Epithelial cell, 10 uM; U937 adhesion to HT-29 cells, IL-6-induced
[2] = Metabolic stability, rat liver microsomes; type: in vitro ADME; settings: 30 min, 1 μM
In short: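 Compound at 1 μM final incubated at 37 °C with 0.5 mg/mL liver microsomal protein plus NADPH regeneration system in 100 mM phosphate, pH 7.4; reactions stopped with cold acetonitrile at 0 and 30 min. Parent remaining by LC-MS/MS peak area, relative to 0 min (100%).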

[3] = Plasma stability, human plasma; type: in vitro ADME; settings: 37 °C, 1 μM
Description: The plasma stability assay was performed by incubation of human or rat plasma with a test compound in a final concentration of 1 μM for 120 min at 37 °C. The incubation was terminated by addition of 40 μL of ice-cold acetonitrile and vortexing for 5 min. The precipitated proteins were removed by centrifugation at 14,000× g for 5 min at 4 °C. Aliquots of the supernatant were injected onto a Shimadzu Nexera XR LC system. Percentages of the parent compound remaining were calculated by comparing peak areas using the Xcalibur software (version 1.6.1, Waltham, MA, USA).

Serum Amyloid A (SAA) = test: Serum SAA level in DSS-induced colitis mouse model (ELISA); type: in vivo; settings: for serum SAA level (mSS assay): 4% DSS-induced mouse model, compound 10 μM, ELISA; for effect on serum SAA level: murine model of DSS-induced colitis
Description: The level of Serum Amyloid A (SAA) was measured using a mouse SAA ELISA kit according to the manufacturer’s instructions (E-90SAA, Immunology Consultants Laboratory, Inc., Portland, OR, USA). All samples were assayed in duplicate. The concentrations of SAA were determined by comparison to serial dilutions of purified SAA calibrator.
Figure 2 Analysis of mouse serum amyloid A (SAA) level. Effect of 6d on the level of SAA in the 4% dextran sulfate sodium (DSS)-induced mouse model. The level of SAA in serum was determined by ELISA. The control mice received water + vehicle (water), and the treated groups received 4% DSS + vehicle or DSS with mesalazine (20 mM), 6d (10 μM), or 15c (10 μM). TEXT PRINTED IN THE PICTURE: vehecle: mSS assay (ng/ml): 252.08 | vehecle: mSS assay (ng/ml): 732.93 (4% DSS) | 2: mSS assay (ng/ml): 788.86 (4% DSS) | 6d: mSS assay (ng/ml): 295.77 (4% DSS) | 15c: mSS assay (ng/ml): 300.95 (4% DSS)

CYP2D6 = target: T2, CYP2D6 (Homo sapiens, UniProt P10635); test: CYP inhibition assay, CYP2D6; type: in vitro ADME; settings: for CYP Inhibition (% of Control) 2D6: 10 μM, CYP activity in presence of inhibitor as % of control, human liver microsomes
T2 construct: from tissue; host or cells: human liver microsomes
Description: as §1

T1 sequence (P33261 whole entry): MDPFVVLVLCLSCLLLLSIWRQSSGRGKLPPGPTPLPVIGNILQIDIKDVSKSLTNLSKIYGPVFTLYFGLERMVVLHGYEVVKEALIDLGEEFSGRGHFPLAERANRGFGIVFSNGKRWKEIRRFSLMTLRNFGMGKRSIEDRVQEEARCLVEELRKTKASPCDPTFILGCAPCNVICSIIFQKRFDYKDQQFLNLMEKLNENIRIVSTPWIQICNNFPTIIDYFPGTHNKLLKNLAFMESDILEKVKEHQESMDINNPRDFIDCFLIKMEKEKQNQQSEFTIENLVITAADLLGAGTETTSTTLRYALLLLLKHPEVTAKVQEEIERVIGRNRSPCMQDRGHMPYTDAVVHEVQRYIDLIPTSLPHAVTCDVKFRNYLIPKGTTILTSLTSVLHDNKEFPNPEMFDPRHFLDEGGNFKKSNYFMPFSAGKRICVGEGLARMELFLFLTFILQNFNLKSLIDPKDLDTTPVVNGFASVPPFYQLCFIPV
T2 sequence (P10635 whole entry): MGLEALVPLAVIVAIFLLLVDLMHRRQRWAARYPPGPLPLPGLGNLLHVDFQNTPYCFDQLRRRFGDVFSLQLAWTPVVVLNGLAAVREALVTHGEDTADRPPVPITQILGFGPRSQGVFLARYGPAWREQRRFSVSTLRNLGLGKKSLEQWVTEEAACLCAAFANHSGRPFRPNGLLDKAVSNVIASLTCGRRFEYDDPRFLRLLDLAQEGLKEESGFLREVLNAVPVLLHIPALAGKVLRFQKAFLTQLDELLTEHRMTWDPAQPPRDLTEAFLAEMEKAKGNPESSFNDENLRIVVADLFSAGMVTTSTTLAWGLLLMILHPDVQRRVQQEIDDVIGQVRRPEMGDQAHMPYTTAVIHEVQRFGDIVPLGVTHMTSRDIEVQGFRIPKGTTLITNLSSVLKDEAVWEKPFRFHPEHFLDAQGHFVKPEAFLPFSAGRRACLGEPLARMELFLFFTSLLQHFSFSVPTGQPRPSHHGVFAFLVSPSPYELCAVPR

Row | CYP Inhibition (% of Control) 2C19 (CYP2C19) | Metabolic Stability (% Remain, 30 min) Rat [2] | Plasma Stability (% Remain, 2 h) Human [3] | CYP Inhibition (% of Control) 2D6 (CYP2D6) | inhibition at 15 min, 10 μM (CYP2C19; human, liver microsomes, pH 7.4, probe S-mephenytoin (4-hydroxylation), at 10 μM drug concentration, read-out: % inhibition of CYP 2C19) | inhibition at 15 min, 10 μM (CYP2D6; human, liver microsomes, pH 7.4, probe dextromethorphan (O-demethylation), at 10 μM drug concentration, read-out: % inhibition of CYP 2D6) | SMILES | inhibition at 10 µM [1] | serum SAA level (mSS assay) (Serum Amyloid A (SAA)) | effect on serum SAA level (Serum Amyloid A (SAA))
1 | 68 % of Control | 20 % Remain | 97 % Remain | 75 % of Control |  |  | CC1(C)C=Cc2c(C(=O)OCCN3CCOCC3)c(O)c3ccccc3c2O1 [6d, 2-Morpholinoethyl 6-hydroxy-2,2-dimethyl-2H-benzo[h]chromene-5-carboxylate] | 26.5 ± 5% | 295.77 ng/mL | reduces serum SAA level
2 | 93 % of Control | 52 % Remain | 100 % Remain | 92 % of Control | < 50% | < 50% | CC1(C)C=Cc2c(C(=O)OCCN3CCOCC3)c(O)c3cc(C(F)(F)F)ccc3c2O1 [15c, 2-Morpholinoethyl 6-hydroxy-2,2-dimethyl-8-(trifluoromethyl)-2H-benzo[h]chromene-5-carboxylate] | 50.3 ± 5.7% | 300.95 ng/mL | reduces serum SAA level
